# System: 425362-245-T-J1 tumor spheroids, viability % test/control
# Assay: Anticancer human tumor 425362-245-T-J1 patient-derived melanoma cell line growth inhibition
# Settings: spheroids with HUVEC and MSC; for IC50: curve of first compound; for viability, T/C: stronger effect = lower value
# How it was run: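 Complex spheroids of malignant cells with endothelial cells and mesenchymal stem cells; agents alone or combined, from near clinical Cmax (or 10 microM if unknown) down in half-log steps, 0.25% DMSO final.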
# 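Also: spheroids exposed to agents for 7 days.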
smiles,measurement,setting,value
COc1cc(C)[nH]c(=O)c1CN1CCc2c(Cl)cc(C(OC)C3COC3)c(Cl)c2C1=O (stereo not given) + Cn1nnc2c(C(N)=O)ncn2c1=O,IC50,second compound 1 µM,> 10 µM
same,IC50,second compound 3.16 µM,> 10 µM
same,IC50,second compound 10 µM,> 10 µM
same,IC50,second compound 31.6 µM,> 10 µM
same,IC50,second compound 100 µM,> 10 µM
same,"viability, T/C","second compound 1 µM, first compound 0.0316 µM",87%
same,"viability, T/C","second compound 1 µM, first compound 0.1 µM",96.6%
same,"viability, T/C","second compound 1 µM, first compound 0.316 µM",95.9%
same,"viability, T/C","second compound 1 µM, first compound 1 µM",92.1%
same,"viability, T/C","second compound 1 µM, first compound 3.16 µM",89.8%
same,"viability, T/C","second compound 1 µM, first compound 10 µM",84.7%
same,"viability, T/C","second compound 3.16 µM, first compound 0.0316 µM",114%
same,"viability, T/C","second compound 3.16 µM, first compound 0.1 µM",103%
same,"viability, T/C","second compound 3.16 µM, first compound 0.316 µM",110%
same,"viability, T/C","second compound 3.16 µM, first compound 1 µM",105%
same,"viability, T/C","second compound 3.16 µM, first compound 3.16 µM",101%
same,"viability, T/C","second compound 3.16 µM, first compound 10 µM",92.4%
same,"viability, T/C","second compound 10 µM, first compound 0.0316 µM",104%
same,"viability, T/C","second compound 10 µM, first compound 0.1 µM",99.9%
same,"viability, T/C","second compound 10 µM, first compound 0.316 µM",114%
same,"viability, T/C","second compound 10 µM, first compound 1 µM",114%
same,"viability, T/C","second compound 10 µM, first compound 3.16 µM",95.8%
same,"viability, T/C","second compound 10 µM, first compound 10 µM",97.6%
same,"viability, T/C","second compound 31.6 µM, first compound 0.0316 µM",113%
same,"viability, T/C","second compound 31.6 µM, first compound 0.1 µM",111%
same,"viability, T/C","second compound 31.6 µM, first compound 0.316 µM",100%
same,"viability, T/C","second compound 31.6 µM, first compound 1 µM",107%
same,"viability, T/C","second compound 31.6 µM, first compound 3.16 µM",89%
same,"viability, T/C","second compound 31.6 µM, first compound 10 µM",93.5%
same,"viability, T/C","second compound 100 µM, first compound 0.0316 µM",94.4%
same,"viability, T/C","second compound 100 µM, first compound 0.1 µM",90.4%
same,"viability, T/C","second compound 100 µM, first compound 0.316 µM",90.3%
same,"viability, T/C","second compound 100 µM, first compound 1 µM",89.7%
same,"viability, T/C","second compound 100 µM, first compound 3.16 µM",88.3%
same,"viability, T/C","second compound 100 µM, first compound 10 µM",71.8%
COc1cc(C)[nH]c(=O)c1CN1CCc2c(Cl)cc(C(OC)C3COC3)c(Cl)c2C1=O (stereo not given) + CC[C@@]1(O)C(=O)OCc2c1cc1n(c2=O)Cc2cc3c(CN(C)C)c(O)ccc3nc2-1,IC50,second compound 0.003 µM,> 10 µM
same,IC50,second compound 0.00949 µM,> 10 µM
same,IC50,second compound 0.03 µM,< 0.0316 µM
same,IC50,second compound 0.0949 µM,< 0.0316 µM
same,IC50,second compound 0.3 µM,< 0.0316 µM
same,"viability, T/C","second compound 0.003 µM, first compound 0.0316 µM",98.7%
same,"viability, T/C","second compound 0.003 µM, first compound 0.1 µM",102%
same,"viability, T/C","second compound 0.003 µM, first compound 0.316 µM",100%
same,"viability, T/C","second compound 0.003 µM, first compound 1 µM",94.3%
same,"viability, T/C","second compound 0.003 µM, first compound 3.16 µM",78.6%
same,"viability, T/C","second compound 0.003 µM, first compound 10 µM",79.5%
same,"viability, T/C","second compound 0.00949 µM, first compound 0.0316 µM",91%
same,"viability, T/C","second compound 0.00949 µM, first compound 0.1 µM",89.6%
same,"viability, T/C","second compound 0.00949 µM, first compound 0.316 µM",85.6%
same,"viability, T/C","second compound 0.00949 µM, first compound 1 µM",80.6%
same,"viability, T/C","second compound 0.00949 µM, first compound 3.16 µM",75.8%
same,"viability, T/C","second compound 0.00949 µM, first compound 10 µM",59.5%
same,"viability, T/C","second compound 0.03 µM, first compound 0.0316 µM",53.7%
same,"viability, T/C","second compound 0.03 µM, first compound 0.1 µM",37.2%
same,"viability, T/C","second compound 0.03 µM, first compound 0.316 µM",46.5%
same,"viability, T/C","second compound 0.03 µM, first compound 1 µM",47.5%
same,"viability, T/C","second compound 0.03 µM, first compound 3.16 µM",29.9%
same,"viability, T/C","second compound 0.03 µM, first compound 10 µM",21.6%
same,"viability, T/C","second compound 0.0949 µM, first compound 0.0316 µM",7.06%
same,"viability, T/C","second compound 0.0949 µM, first compound 0.1 µM",7.25%
same,"viability, T/C","second compound 0.0949 µM, first compound 0.316 µM",6.93%
same,"viability, T/C","second compound 0.0949 µM, first compound 1 µM",7.04%
same,"viability, T/C","second compound 0.0949 µM, first compound 3.16 µM",5.23%
same,"viability, T/C","second compound 0.0949 µM, first compound 10 µM",3.44%
same,"viability, T/C","second compound 0.3 µM, first compound 0.0316 µM",1.81%
same,"viability, T/C","second compound 0.3 µM, first compound 0.1 µM",2.03%
same,"viability, T/C","second compound 0.3 µM, first compound 0.316 µM",1.77%
same,"viability, T/C","second compound 0.3 µM, first compound 1 µM",1.79%
same,"viability, T/C","second compound 0.3 µM, first compound 3.16 µM",1.76%
same,"viability, T/C","second compound 0.3 µM, first compound 10 µM",1.76%
